Reference: patent publication US9983218B2, “Indole and indoline derivatives and methods of use thereof” (AbbVie Inc., priority 2008, dated 2018)

System: SK-N-SH human neuroblastoma cells
Test: Serum deprivation/JC-1 mitochondrial membrane potential (MMP) assay
Type: cell-based
Settings: Homo sapiens; for Emax: SK-N-SH, percent maximal intensity in JC-1 ratio normalized to 10 μM dimebolin, read-out: JC-1 max %; for EC50: SK-N-SH cells, serum deprivation ~18 hours, JC-1 ratio normalized to peak value for 10 μM dimebolin, single curve fit to mean data of n=2-3, read-out: EC50
Description: SK-N-SH human neuroblastoma cells obtained from American Type Culture Collection (Rockville, Md.) were maintained in the log phase of growth in Minimal Essential Media (MEM), 10% heat inactivated fetal calf serum and 100 units/mL antibiotic-antimycotic (AA). Cells were cultured and maintained in a humidified incubator at 37° C. under 5% CO2 and 95% air. Cells were trypsinized (0.25%) and subcultured every 3 days and used from 15-18 passages. All cell culture supplies were obtained from Invitrogen (Carlsbad, Calif.).
SK-N-SH cells were plated 2-3 days in advance at a concentration of 50,000 cells/well onto collagen coated black-walled 96 well plates (Becton-Dickinson, Bedford, Mass.) in a total volume of 200 μL. On day of experimental treatment, the media containing serum was aspirated from each well and rinsed once with MEM/1% AA without serum. The cells then were incubated overnight in 100 μL of MEM/1% AA (no serum) with and without dimebolin or novel chemical entities overnight for ˜18 hours. The following day, JC-1 dye (5,5′,6,6′-tetrachloro-1,1′,3,3′-tetraethylbenzimidazolcarbocyanide) was diluted 1:10 into MEM media according to the JC-1 Mitochondrial Membrane Potential Assay Kit: (Cayman Chemical Company, Ann Arbor, Mich.) and then 10 μL of the JC-1 dye solution was added to each well. The plates were centrifuged for 5 minutes at 400×g at room temperature followed by 35 minute incubation at 37° C. The plates were washed twice with 200[…] μL of provided Assay Buffer followed an addition of 100 μL of Assay Buffer to each well. The plates were read with an excitation and emission of 560 nm and 595 nM for red fluorescence and with an excitation and emission of 485 nm and 535 nM for green fluorescence to determine the final JC-1 value taking the red to green fluorescence ratio. This assay is based on change in mitochondrial membrane potential (MMP) using this lipophilic cationic dye, JC-1, by monitoring the changes in the ratio of red to green fluorescence as the MMP depolarizes. This change in MMP reflects the health of the cell with healthy, viable cells have a high JC-1 ratio and high MMP whereas apoptotic, unhealthy cells have a low JC-1 ratio or low MMP.
For the ability of compounds to reverse the stress due to serum deprivation and increase the JC-1 ratio, the percent maximal intensity in JC-1 ratio was normalized to that induced by the peak value for 10 μM dimebolin and plotted against the compound concentration to calculate EC50 values and to control for plate-to-plate variability. Concentration-response data were analyzed using GraphPad Prism (San Diego, Calif.); the EC50 values were derived from a single curve fit to the mean data of n=2-3, in duplicates.
All compounds were dissolved in dimethyl sulfoxide at 10 mM stock solutions and tested at a concentration that the dimethyl sulfoxide levels never exceeded 1%.

SMILES | Emax [%] | EC50 [µM]
Cc1ccc2c(c1)[C@H]1[C@H]3CC4C[C@H](CN(C4)C3)[C@H]1N2CCc1ccc(C)nc1 (relative stereo) [Example 194, (1R*,7R*,7aS*,12bR*)-11-methyl-8-[2-(6-methylpyridin-3-yl)ethyl]-1,4,5,6,7,7a,8,12b-octahydro-2H-1,5:3,7-dimethanoazonino[5,4-b]indole] | 321 | 2.18
Cc1ccc2c(c1)[C@@H]1[C@@H](C3CCN1CC3)N2CCc1ccc(C)nc1 (relative stereo) [Example 213, (4aR*,9bR*)-8-methyl-5-[2-(6-methylpyridin-3-yl)ethyl]-2,3,4,4a,5,9b-hexahydro-1,4-ethanopyrido[3,2-b]indole] | 177 | 5.43
Cc1ccc(/C=C\n2c3c(c4cc(C)ccc42)[C@@H]2CC[C@H](C3)N2C)cc1 (single isomer, unassigned) [Example 61] | 211 | 4.37
COc1ccc2c(c1)c1c(n2CCc2ccc(Cl)cc2)C[C@@H]2CC[C@H]1N2C (single isomer, unassigned) [Example 93] | 186 | 4.81
CC(C)c1ccc2c(c1)c1c(n2CCc2ccc(Cl)cc2)C[C@H]2CC[C@@H]1N2C (single isomer, unassigned) [Example 100] | 140 | 3.63
Cc1ccc2c(c1)c1c(n2CCc2ccc(C)nc2)C[C@H]2CCC[C@@H]1N2 (single isomer, unassigned) [Example 120] | 197 | 3.4
Cc1ccc2c(c1)c1c(n2CCc2ccc(C)nc2)C[C@@H]2CCC[C@H]1N2 (single isomer, unassigned) [Example 121] | 129 | 3.63
Cc1ccc2c(c1)c1c(n2CCc2ccccc2C)C[C@H]2CCC[C@@H]1N2 (single isomer, unassigned) [Example 127] | 151 | 3.69
Cc1ccc2c(c1)[C@@H]1CN3CCC(CC3)[C@@H]1N2CCc1ccc(C)nc1 (single isomer, unassigned) [Example 159] | 240 | 2.67
Cc1ccc2c(c1)[C@H]1CN3CCC(CC3)[C@H]1N2CCc1ccc(C)nc1 (single isomer, unassigned) [Example 160] | 194 | 1.61
O=c1ccnc2ccc(-n3c4c(c5ccccc53)[C@H]3CC[C@@H](C4)N3)cn12 (single isomer, unassigned) [Example 283] | 170 | 6.02
O=c1ccnc2ccc(-n3c4c(c5ccccc53)[C@@H]3CC[C@H](C4)N3)cn12 (single isomer, unassigned) [Example 284] | 108 | 7.62
Cc1ccc2c(c1)c1c(n2-c2ccc(-c3ccc(I)cc3)nn2)CC2CCC1N2C (stereo not drawn) [Example 3, 5-[6-(4-iodophenyl)pyridazin-3-yl]-2,11-dimethyl-5,6,7,8,9,10-hexahydro-7,10-epiminocyclohepta[b]indole] | 191 | 5.11
CCN1C2CCC1c1c(n(CCc3ccc(C)nc3)c3ccc(C)cc13)C2 (stereo not drawn) [Example 12, 11-ethyl-2-methyl-5-[2-(6-methylpyridin-3-yl)ethyl]-5,6,7,8,9,10-hexahydro-7,10-epiminocyclohepta[b]indole] | 181 | 5.58
Cc1ccc2c(c1)c1c(n2CCc2ccc(C)nc2)CC2CCC1N2CC(F)(F)F (stereo not drawn) [Example 14, 2-methyl-5-[2-(6-methylpyridin-3-yl)ethyl]-11-(2,2,2-trifluoroethyl)-5,6,7,8,9,10-hexahydro-7,10-epiminocyclohepta[b]indole] | 110 | 4.79
CCOC(=O)N1[C@H]2CC[C@@H]1c1c(n(CCc3ccc(C)nc3)c3ccc(C)cc13)C2 [Example 16, ethyl (7S,10R)-2-methyl-5-[2-(6-methylpyridin-3-yl)ethyl]-5,6,7,8,9,10-hexahydro-7,10-epiminocyclohepta[b]indole-11-carboxylate] | 129 | 8.38
Cc1ccc2c(c1)c1c(n2CCc2ccc(C)nc2)CC2CCC1N2C(=O)c1ccc(Cl)cc1 (stereo not drawn) [Example 17, 11-(4-chlorobenzoyl)-2-methyl-5-[2-(6-methylpyridin-3-yl)ethyl]-5,6,7,8,9,10-hexahydro-7,10-epiminocyclohepta[b]indole] | 345 | 3.53
Cc1ccc2c(c1)c1c(n2CCc2ccc(C)nc2)CC2CCC1N2S(=O)(=O)c1ccc(C(F)(F)F)cc1 (stereo not drawn) [Example 18, 2-methyl-5-[2-(6-methylpyridin-3-yl)ethyl]-11-{[4-(trifluoromethyl)phenyl]sulfonyl}-5,6,7,8,9,10-hexahydro-7,10-epiminocyclohepta[b]indole] | 307 | 3.19
Cc1ccc2c(c1)c1c(n2/C=C/c2ccc(C)nc2)C[C@@H]2CC[C@H]1N2C [Example 23, (7S,10R)-2,11-dimethyl-5-[(E)-2-(6-methylpyridin-3-yl)vinyl]-5,6,7,8,9,10-hexahydro-7,10-epiminocyclohepta[b]indole] | 332 | 3.32
Cc1ccc2c(c1)c1c(n2/C=C\c2ccc(C)nc2)C[C@@H]2CC[C@H]1N2C [Example 24, (7S,10R)-2,11-dimethyl-5-[(Z)-2-(6-methylpyridin-3-yl)vinyl]-5,6,7,8,9,10-hexahydro-7,10-epiminocyclohepta[b]indole] | 221 | 2.26
Cc1ccc2c(c1)c1c(n2CCc2cnc(C)nc2)C[C@@H]2CC[C@H]1N2C [Example 32, (7S,10R)-2,11-dimethyl-5-[2-(2-methylpyrimidin-5-yl)ethyl]-5,6,7,8,9,10-hexahydro-7,10-epiminocyclohepta[b]indole] | 53 | 17.3
Cc1ccc2c(c1)c1c(n2CCc2ccc(C)nn2)C[C@H]2CC[C@@H]1N2C [Example 33, (7R,10S)-2,11-dimethyl-5-[2-(6-methylpyridazin-3-yl)ethyl]-5,6,7,8,9,10-hexahydro-7,10-epiminocyclohepta[b]indole] | 97 | 5.81
Cc1ccc2c(c1)c1c(n2CCc2cnc(C)cn2)C[C@H]2CC[C@@H]1N2C [Example 34, (7R,10S)-2,11-dimethyl-5-[2-(5-methylpyrazin-2-yl)ethyl]-5,6,7,8,9,10-hexahydro-7,10-epiminocyclohepta[b]indole] | 175 | 18.1
Cc1ccc2c(c1)c1c(n2CCc2scnc2C)CC2CCC1N2C (stereo not drawn) [Example 35, 2,11-dimethyl-5-[2-(4-methyl-1,3-thiazol-5-yl)ethyl]-5,6,7,8,9,10-hexahydro-7,10-epiminocyclohepta[b]indole] | 78 | 6.71
Cc1ccc2c(c1)c1c(n2CCc2ccccc2F)CC2CCC1N2C (stereo not drawn) [Example 43, 5-[2-(2-fluorophenyl)ethyl]-2,11-dimethyl-5,6,7,8,9,10-hexahydro-7,10-epiminocyclohepta[b]indole] | 202 | 7.64
Cc1ccc2c(c1)c1c(n2CCc2ccc(Cl)cc2)C[C@H]2CC[C@@H]1N2C [Example 44, (7R,10S)-5-[2-(4-chlorophenyl)ethyl]-2,11-dimethyl-5,6,7,8,9,10-hexahydro-7,10-epiminocyclohepta[b]indole] | 291 | 3.31
Cc1ccc(/C=C/n2c3c(c4cc(C)ccc42)[C@@H]2CC[C@H](C3)N2C)cc1 [Example 59, (7R,10S)-2,11-dimethyl-5-[(E)-2-(4-methylphenyl)vinyl]-5,6,7,8,9,10-hexahydro-7,10-epiminocyclohepta[b]indole] | 202 | 4.14
Cc1ccc2c(c1)c1c(n2CCOc2ccc(F)cc2)CC2CCC1N2C (stereo not drawn) [Example 67, 5-[2-(4-fluorophenoxy)ethyl]-2,11-dimethyl-5,6,7,8,9,10-hexahydro-7,10-epiminocyclohepta[b]indole] | 132 | 6.49
Cc1ccc2c(c1)c1c(n2-c2ccc3ccncc3c2)C[C@@H]2CC[C@H]1N2C [Example 68, (7S,10R)-5-isoquinolin-7-yl-2,11-dimethyl-5,6,7,8,9,10-hexahydro-7,10-epiminocyclohepta[b]indole] | 213 | 3.22
Cc1ccc2c(c1)c1c(n2S(=O)(=O)c2ccccc2)CC2CCC1N2C (stereo not drawn) [Example 69, 2,11-dimethyl-5-(phenylsulfonyl)-5,6,7,8,9,10-hexahydro-7,10-epiminocyclohepta[b]indole] | 161 | 4.43
